SMILES strings stand for the structures.

Data set [1] addresses T1, enzyme ACAT-1 (Homo sapiens, UniProt P35610).
T1 sequence (P35610 1-550): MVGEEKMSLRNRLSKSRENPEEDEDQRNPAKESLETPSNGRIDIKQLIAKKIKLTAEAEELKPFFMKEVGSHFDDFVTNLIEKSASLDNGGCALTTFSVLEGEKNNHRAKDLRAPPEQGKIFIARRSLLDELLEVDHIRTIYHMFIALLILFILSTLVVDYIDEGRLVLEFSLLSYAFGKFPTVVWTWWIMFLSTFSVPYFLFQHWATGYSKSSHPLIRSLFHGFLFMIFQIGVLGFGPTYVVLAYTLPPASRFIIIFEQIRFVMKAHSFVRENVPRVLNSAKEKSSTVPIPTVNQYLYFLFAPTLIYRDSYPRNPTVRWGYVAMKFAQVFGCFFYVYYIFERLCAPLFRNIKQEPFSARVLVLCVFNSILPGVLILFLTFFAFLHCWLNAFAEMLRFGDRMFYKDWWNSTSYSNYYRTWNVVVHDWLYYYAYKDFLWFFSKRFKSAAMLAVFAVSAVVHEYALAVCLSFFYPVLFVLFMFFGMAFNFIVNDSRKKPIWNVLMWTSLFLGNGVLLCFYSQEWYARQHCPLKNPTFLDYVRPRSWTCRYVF
The experiment in a line: ACAT-1 (SOAT-1) inhibition test in HepG2 cells with NBD-cholesterol fluorescence. In kind it is cell-based. The conditions noted are these: NBD-cholesterol 1 μg/ml, incubation 6 h at 37° C., fluorescence excitation 490 nm / emission 540 nm. As to the method: The compounds (I) according to the invention, as well as their pharmaceutically acceptable salts, solvates and/or hydrates, have inhibitory properties on the enzyme SOAT-1. This inhibitory activity on the enzyme SOAT-1 is measured according to a primary enzymatic test HepG2, as described in Example 64.
The compounds of formula (I) according to the invention have been subjected to a test allowing their inhibitory action with respect to the enzyme ACAT-1 to be evaluated inspired by the following publication: “Identification of ACAT1- and ACAT2-specific inhibitors using a novel, cell-based fluorescence assay: individual ACAT uniqueness”, J. Lipid Res. (2004) vol. 45, pages 378-386.
The principle of this test is based on the employment of NBD-cholesterol, an analogue of cholesterol whose fluorescence depends on its environment. When this is present in a polar environment, it is weakly fluorescent although in a nonpolar environment it is strongly fluorescent. Free NBD-cholesterol locates itself in the cell membranes and is weakly fluorescent in this polar environment. When the NBD-cholesterol is esterified by ACAT, the ester of NBD-cholesterol locates itself in the nonpolar lipid droplets and is in that case strongly fluorescent.
The method below is applied: The HepG2 cells are incubated in the presence of NBD-cholesterol (1 μg/ml) and of the compound of formula (I) to be tested in black 96-well plates with a transparent base at a rate of 30 000 cells per well. After incubation for 6 h at 37° C., under 5% CO2, the medium is eliminated by turning over and the cells are washed with 2 times 100 μl of PBS. After addition of 50 μl of lysis buffer (NaPO4 10 mM, Igepal 1%), the plates are stirred for 5 min and read in fluorescence (excitation 490 nm, emission 540 nm) on a FUSION apparatus (Perkin-Elmer).

`CC(C)c1cccc(C(C)C)c1NC(=O)CN1C(=O)N(c2ccccc2)C2(CCCC2)C1=O` [compound (I.1), N-(2,6-Diisopropylphenyl)-2-(2,4-dioxo-1-phenyl-1,3-diazaspiro[4.4]non-3-yl)acetamide] registered an IC50 in data set [1] of 3.2 nM.
Regarding `CC(C)c1cccc(C(C)C)c1NC(=O)CN1C(=O)N(c2ccc(F)cc2)C2(CCCCC2)C1=O` [compound (I.7), N-(2,6-Diisopropylphenyl)-2-[1-(4-fluorophenyl)-2,4-dioxo-1,3-diazaspiro-[4.5]dec-3-yl]acetamide], the melting point was 258 °C. Moreover, in data set [1], the IC50 was 0.8 nM.
As for `Cc1ccc(N2C(=O)N(CC(=O)Nc3c(C(C)C)cccc3C(C)C)C(=O)C23CCCCC3)cc1` [compound (I.10), N-(2,6-Diisopropylphenyl)-2-(2,4-dioxo-1-p-tolyl-1,3-diazaspiro[4.5]dec-3-yl)acetamide], the melting point came to 234 °C. The compound further yielded an IC50 in data set [1] of 0.2 nM.
For `CC(C)c1cccc(C(C)C)c1NC(=O)CN1C(=O)N(C2CCCCC2)C2(CCCCC2)C1=O` [compound (I.14), 2-[1-Cyclohexyl-2,4-dioxo-1,3-diazaspiro[4.5]dec-3-yl)-N-(2,6-diisopropyl-phenyl)acetamide], the melting point was 236 °C. The compound further gave an IC50 in data set [1] of 4.8 nM.
The compound `CC(C)c1cccc(C(C)C)c1NC(=O)CN1C(=O)N(CCc2ccccc2)C2(CCCCC2)C1=O` [compound (I.23), N-(2,6-Diisopropylphenyl)-2-(2,4-dioxo-1-phenethyl-1,3-diazaspiro[4.5]dec-3-yl)acetamide] showed a melting point of 225 °C. Moreover, 5.6 nM corresponded to half-maximal inhibition in data set [1] (IC50).
The corresponding values for `CCCCN1C(=O)N(CC(=O)Nc2c(C(C)C)cccc2C(C)C)C(=O)C12CCCCC2` [compound (I.26), 2-(1-Butyl-2,4-dioxo-1,3-diazaspiro[4.5]dec-3-yl)-N-(2,6-diisopropylphenyl)acetamide] are 241 °C and 2.5 nM.
`CCC1(CC)C(=O)N(CC(=O)Nc2c(C(C)C)cccc2C(C)C)C(=O)N1c1ccc(C)cc1` [compound (I.39), 2-(4,4-Diethyl-2,5-dioxo-3-p-tolylimidazolidin-1-yl)-N-(2,6-diisopropylphenyl)acetamide] had a melting point of 174 °C. The IC50 in data set [1] is 0.7 nM.
In turn, `Cc1ccc(N2C(=O)N(CC(=O)Nc3c(C)cccc3Cl)C(=O)C23CCCCC3)cc1` [compound (I.46), N-(2-Chloro-6-methylphenyl)-2-(2,4-dioxo-1-p-tolyl-1,3-diazaspiro[4.5]dec-3-yl)acetamide] yielded a melting point of 244 °C. In addition, in data set [1], the IC50 came out at 5.1 nM.
`Cc1ccc(N2C(=O)N(CC(=O)Nc3c(C)cc(C)cc3Br)C(=O)C23CCCCC3)cc1` [compound (I.52), N-(2-Bromo-4,6-dimethylphenyl)-2-(2,4-dioxo-1-p-tolyl-1,3-diazaspiro[4.5]dec-3-yl)acetamide]: the melting point is 245 °C. Further, the 50% inhibitory concentration (IC50) in data set [1] was 5.3 nM.
`CCc1cccc(CC)c1NC(=O)CN1C(=O)N(CC(C)C)C2(CCCCC2)C1=O` [compound (I.59), N-(2,6-Diethylphenyl)-2-(1-isobutyl-2,4-dioxo-1,3-diazaspiro[4.5]dec-3-yl)acetamide]: the melting point was 209 °C.
As for `CC(C)c1cccc(C(C)C)c1NC(=O)CN1C(=O)N(c2ccc(OCc3ccccc3)cc2)C2(CCCCC2)C1=O` [compound (I.60), 2-[1-(4-Benzyloxyphenyl)-2,4-dioxo-1,3-diazaspiro[4.5]dec-3-yl]-N-(2,6-di-isopropylphenyl)acetamide], the melting point turned out to be 118 °C.
The compound `CCc1cccc(CC)c1NC(=O)CN1C(=O)N(c2ccc(Cl)cc2)C2(CCCC2)C1=O` [compound (I.61), 2-[1-(4-Chlorophenyl)-2,4-dioxo-1,3-diazaspiro[4.4]non-3-yl]-N-(2,6-diethylphenyl)acetamide] had a melting point of 218 °C. In addition, the IC50 in data set [1] was determined as 2.7 nM.
As to `CCc1cccc(CC)c1NC(=O)CN1C(=O)N(c2ccc(OCc3ccccc3)cc2)C2(CCCCC2)C1=O` [compound (I.62), 2-[1-(4-Benzyloxyphenyl)-2,4-dioxo-1,3-diazaspiro[4.5]dec-3-yl]-N-(2,6-di-ethylphenyl)acetamide], the melting point worked out at 184 °C.
`CCc1cccc(CC)c1NC(=O)CN1C(=O)N(Cc2ccccc2)C2(CCCCC2)C1=O` [compound (I.63), 2-(1-Benzyl-2,4-dioxo-1,3-diazaspiro[4.5]dec-3-yl)-N-(2,6-diethylphenyl)-acetamide] gave a melting point of 179 °C.

A word on the IC50: it is the point on the concentration scale where inhibition reaches its midpoint. The low end stands for greater potency, the high end for weaker potency. For orientation: melting point means the temperature, or range, at which the solid turns liquid.

The values above are taken from US8044082B2, “N-phenylacetamide inhibitors of the enzyme SOAT-1 and pharmaceutical/cosmetic compositions comprised thereof” (Galderma Research & Development, priority 2007, dated 2011).
